Literature values as cited in patent publication US8476254B2, “Methods for treating psychosis associated with interferson-α therapy” (Corcept Therapeutics, Inc., priority 2002, dated 2013).

Settings: % of the daily dose; in one study (Kawai)

- fraction of the daily dose excreted in the urine: less than 0.5%
Compound: CC#C[C@]1(O)CC[C@H]2[C@@H]3CCC4=CC(=O)CCC4=C3[C@@H](c3ccc(N(C)C)cc3)C[C@@]21C [Mifepristone, 17-beta-hydroxy-11-beta-(4-dimethyl-aminophenyl)-17-alpha-(1-propynyl)-estra-4,9-dien-3-one]
